In US7375080B1, “Immobilized lactoferrin (Im-LF) antimicrobial agents and uses thereof” (priority 1999, dated 2008):
Where two headings read alike, the source gives them in different places.

How the values were obtained:
[1] = system: E. coli serotype O157:H7 (strain ATCC43895); type: cell-based
[2] = system: E. coli O157:H7 strain ATCC43895; experiment: Microbial adhesion assay: detachment of 3H-thymidine labeled bacteria from beef tissue by wash; type: cell-based

Compound	GROWTH (%) [1] [%]	% BACTERIAL CELLS DETACHED IN 1-MINUTE [2] [%]	% BACTERIAL CELLS DETACHED IN 1-MINUTE ([2]; Lean tissue (beef)) [%]	% BACTERIAL CELLS DETACHED IN 1-MINUTE ([2]; Surface tissue (neck) (beef)) [%]
[Cl-].[Na+] [0.1 M sodium chloride, sodium chloride]	100			
O=C(O)CC(O)(CC(=O)O)C(=O)O [0.001 M citric acid, citric acid]	103			
O=C([O-])O.[Na+] [0.01 M sodium bicarbonate, sodium bicarbonate]	112			
CC(O)C(=O)O (stereo not drawn) [Lactic acid (2%), Lactic acid]		68	75	62
